Source: article PMC12040169 (PLOS Biology, 2025)

Test: in vitro
Details: human, hela cells, % viability

## Cc1ccc(S(=O)(=O)N2CCN(CCC(=O)O)CC2)cc1C [CBK269416]
  viability at 28.5 h, 10 µM: 93.3%

## O=C(COc1nc2cc3c(nc2o1)CCC3)c1ccccc1 [CBK269407]
  viability at 28.5 h, 10 µM: 75.5%

## O=C(CN1C(=O)c2ccccc2C1=O)Nc1ccccc1C(=O)N1CCN(c2ccccc2)CC1 [CBK269251]
  viability at 28.5 h, 10 µM: 118%

## COc1ccc(S(=O)(=O)Nc2ccc3oc4c(c3c2)CC(C)CC4)cc1[N+](=O)[O-] (centres unmarked) [CBK266131]
  viability at 28.5 h, 10 µM: 94.3%

## NC1CCN(C(=O)Cn2c3ccccc3c(=O)c3ccccc32)C1 (centres unmarked) [CBK304300C]
  viability at 28.5 h, 10 µM: 94.3%

## CCOc1cccc(CNc2nn[nH]n2)c1OCc1ccc(C)cc1 [CBK288127]
  viability at 28.5 h, 10 µM: 110%

## O=C1CCCN1CCC(=O)N1CCCC1c1nc2ccccc2[nH]1 (centres unmarked) [CBK283981]
  viability at 28.5 h, 10 µM: 84.2%

## CCN(C(=O)Nc1ccc(-c2ccco2)cc1)C1CCOCC1 [CBK306916]
  viability at 28.5 h, 10 µM: 95.8%

## O=C(c1ccc(F)cc1)C1CCN(Cc2cc(=O)[nH]c(=O)[nH]2)CC1 [CBK149132]
  viability at 28.5 h, 10 µM: 91.8%

## COc1ccc(NC(=O)Cn2cnc3c2c(=O)n(C)c(=O)n3C)cc1Cl [CBK134216]
  viability at 28.5 h, 10 µM: 95.9%

## COc1ccc(C(=O)NCC(=O)Nc2ccc(N3CCCCC3)cc2)cc1OC [CBK295199]
  viability at 28.5 h, 10 µM: 94.3%

## Cc1ccc(S(=O)(=O)NCCN2CCN(S(=O)(=O)c3ccc(C)cc3)CC2)cc1 [CBK265461]
  viability at 28.5 h, 10 µM: 115%

## O=C(CN1C2CCC1CC(O)(c1ccco1)C2)N1CCCCC1 (centres unmarked) [CBK284093]
  viability at 28.5 h, 10 µM: 90.3%

## O=C(Cn1ncn2c(cc3ccsc32)c1=O)N1CCCCC1 [CBK284195]
  viability at 28.5 h, 10 µM: 85.2%

## CC1CCN(C(=O)C[C@@H]2O[C@H](CNC(=O)C3CC3)[C@@H](O)[C@H]2O)CC1 [CBK288926]
  viability at 28.5 h, 10 µM: 92%

## O=C(NCCNC(=O)c1ccccn1)c1cccc(F)c1 [CBK269613]
  viability at 28.5 h, 10 µM: 78.3%

## CSCCC(NS(=O)(=O)c1ccc(I)cc1)C(=O)O (centres unmarked) [CBK268768]
  viability at 28.5 h, 10 µM: 98.6%

## CCOC(=O)c1cnn(C2CCCN(Cc3cn(C)nc3C)C2)c1 (centres unmarked) [CBK304044]
  viability at 28.5 h, 10 µM: 89.2%

## CC(C)(C)C(=O)N1CCC(n2nc(-c3cccs3)ccc2=O)CC1 [CBK284182]
  viability at 28.5 h, 10 µM: 92.9%

## CCOc1ccc(-c2cn(S(=O)(=O)c3cccc4nsnc34)nc2N)cc1 [CBK267883]
  viability at 28.5 h, 10 µM: 102%

## Cc1cccc(-c2noc(C)c2C(=O)NCCn2ccc(C)n2)c1 [CBK282656]
  viability at 28.5 h, 10 µM: 96.4%

## c1c(CC2CCCCC2)nnn1[C@H]1CO[C@H]2[C@@H]1OC[C@@H]2NCC1CC1 [CBK289511]
  viability at 28.5 h, 10 µM: 99.1%

## Cc1cc(C)nc(NC(=O)c2c(Cl)cccc2Cl)n1 [CBK058401]
  viability at 28.5 h, 10 µM: 99.9%

## CCCn1cnnc1C(C)NS(=O)(=O)c1cccc(C(=O)N2CCC2)c1 (centres unmarked) [CBK306569]
  viability at 28.5 h, 10 µM: 103%

## Cn1cncc1CN(Cc1ccccn1)Cc1ccccc1Cl [CBK282129]
  viability at 28.5 h, 10 µM: 105%

## C=CCn1c(SC(C)C(=O)O)nnc1-c1ccc(OC)cc1 (centres unmarked) [CBK268958]
  viability at 28.5 h, 10 µM: 91.1%

## Cc1nc2cc(OCc3ccc(-c4nccnc4-c4nnn[nH]4)cc3)ccc2s1 [CBK050820]
  viability at 28.5 h, 10 µM: 108%

## Nc1ncc(-c2cncnc2)nc1N1CCOCC1 [CBK063422]
  viability at 28.5 h, 10 µM: 93.7%

## CC1=[N+]([O-])C2(N)CCc3nonc3C2(O)C1 (centres unmarked) [CBK261513]
  viability at 28.5 h, 10 µM: 87.9%

## COC(=O)c1ccccc1NC(C)=O [CBK003522]
Bulk resorufin, single well
  viability at 28.5 h, 10 µM: 107%

## Cc1nc(SCC(=O)O)nc(O)c1CCC(C)C [CBK269920]
  viability at 28.5 h, 10 µM: 92.9%

## CC(C)N(Cc1nc(-c2ccc(Cl)cc2)no1)S(=O)(=O)c1cccc([N+](=O)[O-])c1 [CBK267050]
  viability at 28.5 h, 10 µM: 83.6%

## Fc1ccccc1C1CCN(c2cncc(N3CCNCC3)n2)CC1 [CBK172236G]
  viability at 28.5 h, 10 µM: 122%

## COc1ccc(C(=O)c2c[nH]c3ccccc23)cc1 [CBK111451]
  viability at 28.5 h, 10 µM: 88.9%

## Cc1nc(S(=O)(=O)N2CCC(C(=O)N3CCCCC3)CC2)cn1C [CBK305963]
  viability at 28.5 h, 10 µM: 89.4%

## Cc1ccc2ccccc2c1CN(/N=N/c1nonc1C)c1nonc1C [CBK262412]
  viability at 28.5 h, 10 µM: 99.6%

## Nc1nc(=O)c2cnc3ccc(F)cc3c2s1 [CBK291195]
  viability at 28.5 h, 10 µM: 111%

## COCCn1cnnc1CN(C)C(=O)NC(C)c1nc2ccccc2[nH]1 (centres unmarked) [CBK307155]
  viability at 28.5 h, 10 µM: 99.6%

## CC(C)CNc1nccnc1-c1cccc(C=O)c1 [CBK088744]
  viability at 28.5 h, 10 µM: 100%

## Cc1ccc(C(=O)N(Cc2ccncc2)C2CCCCC2)cc1C [CBK085386]
  viability at 28.5 h, 10 µM: 97.9%

## Cc1ccc(CN(CCCn2ccnc2)Cc2c[nH]cn2)s1 [CBK283136]
  viability at 28.5 h, 10 µM: 95.1%

## CC(C)OCC(O)Cn1c(N/N=C/c2ccccc2O)nc2c1c(=O)[nH]c(=O)n2C (centres unmarked) [CBK139853]
  viability at 28.5 h, 10 µM: 101%

## COc1ccc(C)cc1N(CC(=O)Nc1ccccc1C(=O)O)S(C)(=O)=O [CBK264009]
  viability at 28.5 h, 10 µM: 94.4%

## CC1(C)C(=O)N2CCN=C2c2ccccc21 [CBK009903]
  viability at 28.5 h, 10 µM: 78.6%

## O=c1[nH]nc2c(N3CCc4ccccc4C3)nccn12 [CBK288497]
  viability at 28.5 h, 10 µM: 80.9%

## Cc1ccc(OCc2nnc(SCC(=O)c3cccs3)n2-c2ccccc2)cc1C [CBK265033]
  viability at 28.5 h, 10 µM: 101%

## COc1ccc(/C=C(\C)C(=O)Nc2cccnc2N2CCNCC2)cc1OC [CBK034124T]
  viability at 28.5 h, 10 µM: 88.3%

## COc1cccc(C(=O)N2CCC(NC(=O)c3csc(-c4ccccc4)n3)CC2)c1 [CBK155030]
  viability at 28.5 h, 10 µM: 90.4%

## CCn1nc(NC(=O)C2Cc3ccccc3CN2C)cc1C (centres unmarked) [CBK282133]
  viability at 28.5 h, 10 µM: 93.8%

## CCOC(=O)CN1CCN(c2nccnc2Oc2ccc(OC)c(OC)c2)CC1 [CBK083052T]
  viability at 28.5 h, 10 µM: 103%

## COc1ccccc1-c1nccnc1NCc1ccc(C(F)(F)F)cc1 [CBK036788]
  viability at 28.5 h, 10 µM: 109%

## Cc1cc(N2CCOC3(CCN(C(=O)c4ccc5ccccc5c4)CC3)C2)nc(N)n1 [CBK161125A]
  viability at 28.5 h, 10 µM: 93.2%

## CC1CCN(S(=O)(=O)c2ccc(NC(=O)CCN3C(=O)c4ccccc4C3=O)cc2)CC1 [CBK265572]
  viability at 28.5 h, 10 µM: 98.8%

## O=C(Nc1ccccn1)c1c(O)n(Cc2ccccc2)c2ccccc2c1=O [CBK291213]
  viability at 28.5 h, 10 µM: 90.3%

## NS(=O)(=O)c1cc(C(=O)OCCNC(=O)c2ccccc2)c(Cl)cc1Cl [CBK265193]
  viability at 28.5 h, 10 µM: 88.9%

## O=C(CSCc1c(Cl)cccc1Cl)NN1C(=O)c2ccccc2C1=O [CBK267800]
  viability at 28.5 h, 10 µM: 101%

## CN1CCC(C(=O)NC2Cc3ccccc3C2)CC1 [CBK200263]
  viability at 28.5 h, 10 µM: 118%

## CN1CCN(c2nc(Nc3ccc(Cl)cc3)nc(Oc3ccccc3)n2)CC1 [CBK004778]
  viability at 28.5 h, 10 µM: 107%

## Cc1ccc(-n2nc(C(=O)NC3(C#N)CCSC3)cc2C)cc1 (centres unmarked) [CBK306403]
  viability at 28.5 h, 10 µM: 86.9%

## O=C(O)CCCNC(=O)c1ccncc1 [CBK261146]
  viability at 28.5 h, 10 µM: 104%

## O=[N+]([O-])c1ccc(C(O)CNC(=S)Nc2ccccc2)cc1 (centres unmarked) [CBK261086]
  viability at 28.5 h, 10 µM: 99.8%

## Cc1ccc(OCC(=O)O/N=C(\N)c2ccccn2)cc1C [CBK264755]
  viability at 28.5 h, 10 µM: 101%

## COCC1CCN(c2ncc(C#N)cc2Cl)CC1 [CBK306410]
  viability at 28.5 h, 10 µM: 61.1%

## Cc1cc2c(s1)c1cnn(CC(=O)N3CCCCC3)c(=O)c1n2C [CBK284187]
  viability at 28.5 h, 10 µM: 82.3%

## FC(F)(F)c1ccc2c(c1)N(CCCN1CCCC1)c1ccccc1S2 [CBK015520C]
  viability at 28.5 h, 10 µM: 88%

## O=C(O)c1cc(S(=O)(=O)NC(CO)C(O)c2ccc([N+](=O)[O-])cc2)ccc1Br (centres unmarked) [CBK262515]
  viability at 28.5 h, 10 µM: 104%

## COC(=O)CCC(=O)N1CCC2(CCN(Cc3ccccc3)C2)C1 (centres unmarked) [CBK136852]
  viability at 28.5 h, 10 µM: 116%

## COCCOc1ncccc1OCc1ccccc1 [CBK001456]
  viability at 28.5 h, 10 µM: 92.9%

## CCn1c(SCc2cccnc2)nc2c(c1=O)SC(C)C2 (centres unmarked) [CBK287643]
  viability at 28.5 h, 10 µM: 87.7%

## Cc1ccc(-c2noc([C@@H]3C[C@H](NC(=O)CCC(=O)O)CN3C)n2)cc1 [CBK288852]
  viability at 28.5 h, 10 µM: 93.8%

## Brc1cn2c(-c3ccccc3)cnc2c(N2CCCC2)n1 [CBK091488]
  viability at 28.5 h, 10 µM: 106%

## O=C(CC(CN1CCCN(c2ncccn2)CC1)C(=O)O)NCc1ccccc1 (centres unmarked) [CBK286856]
  viability at 28.5 h, 10 µM: 87.2%

## CCOC(=O)N1CCC2(CC1)Oc1ccc(-c3cc(OC)c(OC)c(OC)c3)cc1O2 [CBK090282]
Bulk resorufin, single well
  viability at 28.5 h, 10 µM: 90.9%

## C[C@@H](c1ccccc1)n1c(=O)[nH]c2ncc(-c3cccc4cccnc34)nc21 [CBK064199]
  viability at 28.5 h, 10 µM: 92%

## O=S(=O)(c1ccccc1)n1cc2c3c(cccc31)CN(CCO)C2 [CBK156333T]
  viability at 28.5 h, 10 µM: 106%

## CCNC(=O)c1cnc(-c2ccc(F)cc2)c(-c2ccncc2)c1 [CBK037477]
  viability at 28.5 h, 10 µM: 101%

## COc1ccc(CN2CCC(Cc3ccccc3-c3ccc(C)cc3C)(C(=O)O)CC2)cc1 [CBK286421]
  viability at 28.5 h, 10 µM: 88.5%

## C/C(Cl)=C\CN1C(=O)C(=O)c2cc(C)ccc21 [CBK087601]
  viability at 28.5 h, 10 µM: 92.3%

## CCn1c(C)nnc1SCCNC(=O)c1cnc(N(C)C)nc1C [CBK307135]
  viability at 28.5 h, 10 µM: 93%

## O=C(CCCN1C(=O)/C(=C/c2ccc3c(c2)OCO3)SC1=S)Nc1ccc([N+](=O)[O-])cc1 [CBK264623]
  viability at 28.5 h, 10 µM: 105%

## O=C(C1CCCC1)N1C[C@@H]2CCCCN(Cc3cccnc3)[C@@H]2C1 [CBK285492]
  viability at 28.5 h, 10 µM: 101%

## COc1ccc(CCNC(=O)N2CCCC(C(=O)O)C2)cc1OC (centres unmarked) [CBK161354]
  viability at 28.5 h, 10 µM: 100%

## C=C(C)CN1CCN(C(=O)c2c(C)oc3ccc(O)cc23)CC1 [CBK282626]
  viability at 28.5 h, 10 µM: 95%

## COc1cc2c(cc1OC)C(C)N(Cc1cc(C)c(O)c(C)c1)CC2 (centres unmarked) [CBK074659C]
  viability at 28.5 h, 10 µM: 99.9%

## CCCc1c(C(=O)N2CCN(c3ncccn3)CC2)cnn1-c1cc(Cl)cc(Cl)c1 [CBK107383]
  viability at 28.5 h, 10 µM: 102%

## CC1(C)NC(C)(C)C(=N\O)/C(=N\O)C/1=N\O [CBK261512]
  viability at 28.5 h, 10 µM: 110%

## COc1cccc(C(=O)COC(=O)c2ccc3c(c2)C(=O)N(c2ccc(C(C)=O)cc2)C3=O)c1 [CBK264872]
  viability at 28.5 h, 10 µM: 84%

## COc1cc(C(=O)N2CCN(Cc3c[nH]c4ccccc34)CC2)cc(OC)c1OC [CBK301212G]
  viability at 28.5 h, 10 µM: 77.7%

## CN1CCN(C(=O)CCc2nc(-c3ccc(Cl)cc3)no2)CC1 [CBK268304]
  viability at 28.5 h, 10 µM: 117%
